This passage reports IC50 results from US11939352B2, “Potent aromatase inhibitors through fungal transformation of anti-cancer drug testolactone: an approach towards treatment of breast cancer” (priority 2021, dated 2024).

The test concerns the target T1, human placental microsomal aromatase (Homo sapiens, UniProt P11511).
T1 construct: was determined in a pool of human fresh placental microsomes in vitro; from tissue; host or cells: human placenta (pooled fresh microsomes)
T1 sequence (P11511 1-503): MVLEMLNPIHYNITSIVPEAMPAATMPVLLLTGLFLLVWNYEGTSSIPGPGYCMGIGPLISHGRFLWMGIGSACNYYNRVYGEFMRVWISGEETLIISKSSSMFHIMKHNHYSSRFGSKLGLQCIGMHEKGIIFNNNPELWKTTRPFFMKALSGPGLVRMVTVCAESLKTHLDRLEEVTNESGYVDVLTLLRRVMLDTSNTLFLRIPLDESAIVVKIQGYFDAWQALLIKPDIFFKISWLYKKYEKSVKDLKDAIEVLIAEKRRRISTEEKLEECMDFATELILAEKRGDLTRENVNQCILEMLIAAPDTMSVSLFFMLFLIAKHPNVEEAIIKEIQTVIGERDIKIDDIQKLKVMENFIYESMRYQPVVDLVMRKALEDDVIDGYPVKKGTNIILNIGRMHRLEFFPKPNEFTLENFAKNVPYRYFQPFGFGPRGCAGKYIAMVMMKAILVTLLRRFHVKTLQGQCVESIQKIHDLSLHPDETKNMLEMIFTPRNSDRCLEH
The test is described as follows: Human placental aromatase inhibition assay. Type of test: biochemical.
For orientation: IC50 means the concentration that inhibits the measured activity by half. The low end stands for greater potency, the high end for weaker potency. Turning to `C[C@]12CC[C@@H](O)C[C@H]1CC[C@@H]1[C@@H]2[C@@H](O)C[C@]2(C)OC(=O)CC[C@@H]12` [Compound 3, 3α,11β-dihydroxy-13,17-seco-5β-androsta-17,13α-lactone], half-maximal inhibition (IC50) required 0.00923 ± 0.0013 µM.
In the case of `C[C@]12CC[C@H]3[C@@H](CC[C@]45O[C@H]4[C@H](O)C=C[C@]35C)[C@@H]1CCC(=O)O2` [Compound 5, 4β,5β-epoxy-3α-hydroxy-13,17-secoandrosta-1-eno-17,13α-lactone] it was 0.82 ± 0.059 µM.
In the case of `C[C@]12C=CC(=O)C[C@H]1C[C@H](O)[C@@H]1[C@@H]2CC[C@]2(C)OC(=O)CC[C@@H]12` [Compound 2, 7β-hydroxy-3-oxo-13,17-seco-5β-androsta-1-eno-17,13α-lactone] it was 0.00863 ± 0.0004 µM.
`C[C@]12CC[C@H]3[C@@H](CC[C@]45O[C@H]4[C@@H](O)C=C[C@]35C)[C@@H]1CCC(=O)O2` [Compound 4, 4β,5β-epoxy-3β-hydroxy-13,17-secoandrosta-1-eno-17,13α-lactone] yielded an IC50 of 10.4 ± 0.5 µM. Against the preceding compound, the IC50 is about 1200-fold higher.
For the compound `C[C@]12C=CC(=O)C=C1CC[C@@H]1[C@@H]2CC[C@]2(C)OC(=O)CC[C@@H]12` [Compound 1, 3-oxo-13,17-secoandrosta-1,4-dieno-17,13α-lactone, reference compound], half-maximal inhibition (IC50) required 0.716 ± 0.031 µM. Compared with the last compound, the IC50 is about 15-fold lower.
